Assay results published in ChEMBL document CHEMBL3217725, “Peptidomimetic nitriles as selective inhibitors for the malarial cysteine protease falcipain-2” (Medchemcomm, 2011).
pKi: −log10 of the molar value. The source made the active and inactive calls. No cut-off for these calls is given here. Where a SMILES comes first, the peptide text is derived from it. [ ]: non-standard residue; d: D form. The star is where a group is joined. Ac6c = NC1(C(=O)O)CCCCC1; Cbz = O=C(OCc1ccccc1)*

Legend:
[1] = test system: Plasmodium falciparum; assay: Inhibition of Plasmodium falciparum recombinant falcipain 2 using Cbz-Leu-Arg-AMC as substrate at 20 uM after 10 mins by fluorescence spectrophotometric analysis relative to control
[2] = species on record: Homo sapiens; assay: Inhibition of human alpha-chymotrypsin using Suc-Leu-Tyr-AMC as substrate assessed as residual activity after 10 mins by Dixon plot analysis
[3] = biological target: T1, Procathepsin L (Homo sapiens, UniProt P07711); assay: Inhibition of human cathepsin L at 20 uM relative to control
Target sequence in this assay (P07711 114-333 limits assumed): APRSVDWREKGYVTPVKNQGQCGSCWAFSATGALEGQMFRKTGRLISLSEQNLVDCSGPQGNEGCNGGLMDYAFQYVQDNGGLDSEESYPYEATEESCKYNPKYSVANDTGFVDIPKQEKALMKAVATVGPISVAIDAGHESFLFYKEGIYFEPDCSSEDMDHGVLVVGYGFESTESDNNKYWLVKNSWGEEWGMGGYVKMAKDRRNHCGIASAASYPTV

[4] = biological target: T2, Cathepsin B (Homo sapiens, UniProt P07858); assay: Inhibition of human cathepsin B at 20 uM relative to control
[5] = Inhibition of Plasmodium falciparum recombinant falcipain 2 using Cbz-Leu-Arg-AMC as substrate after 10 mins by fluorescence spectrophotometric analysis
[6] = biological target: T1, Procathepsin L; assay: Inhibition of human cathepsin L
Target sequence in this assay (P07711 whole entry): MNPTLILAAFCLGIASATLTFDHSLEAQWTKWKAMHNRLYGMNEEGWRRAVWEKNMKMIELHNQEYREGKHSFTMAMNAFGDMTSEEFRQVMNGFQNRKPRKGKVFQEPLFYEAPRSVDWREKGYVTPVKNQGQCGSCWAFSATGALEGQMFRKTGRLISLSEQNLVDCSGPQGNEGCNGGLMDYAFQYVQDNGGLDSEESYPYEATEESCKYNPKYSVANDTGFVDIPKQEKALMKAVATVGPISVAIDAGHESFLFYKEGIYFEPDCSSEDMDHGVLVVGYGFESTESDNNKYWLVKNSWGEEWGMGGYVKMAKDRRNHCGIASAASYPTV

[7] = biological target: T2, Cathepsin B; assay: Inhibition of human cathepsin B

SMILES	inhibition [1] [%]	Activity [2]	inhibition [3] [%]	inhibition [4] [%]	pKi [6]	pKi [7]	pKi [5]
COc1ccccc1CCC(=O)NC1(C(=O)NCC#N)CCCCC1	< 35	inactive	< 35	< 35	4.60		5.28
N#CCNC(=O)C1(NC(=O)CCc2ccco2)CCCCC1	< 35	inactive	< 35	< 35			4.76
N#CCNC(=O)C1(NC(=O)CCc2cccs2)CCCCC1	< 35	inactive	< 35	< 35			5.06
N#CCNC(=O)C1(NC(=O)C2CCCC2)CCCCC1	< 35	inactive	< 35	< 35			5.12
N#CCNC(=O)C1(NC(=O)OCc2ccccc2)CCCCC1	< 35	inactive	< 35	< 35	4.58		5.92
O=CCNC(=O)C1(NC(=O)OCc2ccccc2)CCCCC1 (Cbz-[Ac6c]-Gly-aldehyde)	< 35	inactive	< 35	< 35	6.09	5.87	7.19

Second part, led by results:

inhibition [1] [%]	Activity [2]	inhibition [3] [%]	inhibition [4] [%]	pKi [6]	pKi [7]	SMILES	pKi [5]
< 35	inactive	< 35	< 35			COc1ccc(CCC(=O)NC2(C(=O)NCC#N)CCCCC2)cc1	5.05
< 35	inactive	< 35	< 35			N#CCNC(=O)C1(NC(=O)CCc2cccnc2)CCCCC1	5.03
< 35	inactive	< 35	< 35			COc1ccc(CCC(=O)NC2(C(=O)NCC#N)CCCCC2)cc1OC	5.14
< 35	inactive	< 35	< 35			N#C[C@@H]1CCCN1C(=O)C1(NC(=O)OCc2ccccc2)CCCCC1	
< 35	inactive	< 35	< 35	4.53	4.60	N#CCNC(=O)C1(NC(=O)CCC2CCCC2)CCCCC1	5.09
< 35	inactive	< 35	< 35	4.88	5.30	N#CCNC(=O)C1(NC(=O)[C@H]2C[C@@H]2c2ccccc2)CCCCC1 (racemic)	5.68
< 35	inactive	< 35	< 35			CC(C)(NC(=O)OCc1ccccc1)C(=O)NCC#N	
